# Experimental data published in patent US20240018161A1, “MODULATORS OF CYSTIC FIBROSIS TRANSMEMBRANE CONDUCTANCE REGULATOR” (VERTEX PHARMACEUTICALS INCORPORATED, priority 2020, published 2024).
# Read-outs that look alike come from different tables or passages of the source.
# Target: CFTR-mediated chloride transport in human intestinal epithelial enteroid cells (Homo sapiens, UniProt P13569)
# Experiment: Membrane potential dye, Enteroid Assay A
# Type: cell-based
# Details: for EC50: read-out: Ent. A EC50
# In short: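 Membrane potential dye (20 μM methyl oxonol, with 30 μM CaCCinh-A01 and 30 μM Chicago Sky Blue) loaded 25 min at room temperature into ROCK-inhibitor-seeded human enteroid cells. Chloride-free stimulation buffer triggered transport, followed by 15 min fluorescence. % Activity relative to 3 μM/3 μM/300 nM triple-combination control.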
# [1] = percentage of chloride transport of triple combination control (3 μM N-[(6-amino-2-pyridyl)sulfonyl]-6-(3-fluoro-5-isobutoxy-phenyl)-2-[(4S)-2,2,4-trimethylpyrrolidin-1-yl]pyridine-3-carboxamide based)
# [2] = enteroid cells incubated with test compound 18-24 hours, acute 10 μM forskolin and 300 nM N-[2,4-bis(1,1-dimethylethyl)-5-hydroxyphenyl]-1,4-dihydro-4-oxoquinoline-3-carboxamide
# Sequence of CFTR-mediated chloride transport in human intestinal epithelial enteroid cells (P13569 with tags, fused parts or gaps DEL508-508): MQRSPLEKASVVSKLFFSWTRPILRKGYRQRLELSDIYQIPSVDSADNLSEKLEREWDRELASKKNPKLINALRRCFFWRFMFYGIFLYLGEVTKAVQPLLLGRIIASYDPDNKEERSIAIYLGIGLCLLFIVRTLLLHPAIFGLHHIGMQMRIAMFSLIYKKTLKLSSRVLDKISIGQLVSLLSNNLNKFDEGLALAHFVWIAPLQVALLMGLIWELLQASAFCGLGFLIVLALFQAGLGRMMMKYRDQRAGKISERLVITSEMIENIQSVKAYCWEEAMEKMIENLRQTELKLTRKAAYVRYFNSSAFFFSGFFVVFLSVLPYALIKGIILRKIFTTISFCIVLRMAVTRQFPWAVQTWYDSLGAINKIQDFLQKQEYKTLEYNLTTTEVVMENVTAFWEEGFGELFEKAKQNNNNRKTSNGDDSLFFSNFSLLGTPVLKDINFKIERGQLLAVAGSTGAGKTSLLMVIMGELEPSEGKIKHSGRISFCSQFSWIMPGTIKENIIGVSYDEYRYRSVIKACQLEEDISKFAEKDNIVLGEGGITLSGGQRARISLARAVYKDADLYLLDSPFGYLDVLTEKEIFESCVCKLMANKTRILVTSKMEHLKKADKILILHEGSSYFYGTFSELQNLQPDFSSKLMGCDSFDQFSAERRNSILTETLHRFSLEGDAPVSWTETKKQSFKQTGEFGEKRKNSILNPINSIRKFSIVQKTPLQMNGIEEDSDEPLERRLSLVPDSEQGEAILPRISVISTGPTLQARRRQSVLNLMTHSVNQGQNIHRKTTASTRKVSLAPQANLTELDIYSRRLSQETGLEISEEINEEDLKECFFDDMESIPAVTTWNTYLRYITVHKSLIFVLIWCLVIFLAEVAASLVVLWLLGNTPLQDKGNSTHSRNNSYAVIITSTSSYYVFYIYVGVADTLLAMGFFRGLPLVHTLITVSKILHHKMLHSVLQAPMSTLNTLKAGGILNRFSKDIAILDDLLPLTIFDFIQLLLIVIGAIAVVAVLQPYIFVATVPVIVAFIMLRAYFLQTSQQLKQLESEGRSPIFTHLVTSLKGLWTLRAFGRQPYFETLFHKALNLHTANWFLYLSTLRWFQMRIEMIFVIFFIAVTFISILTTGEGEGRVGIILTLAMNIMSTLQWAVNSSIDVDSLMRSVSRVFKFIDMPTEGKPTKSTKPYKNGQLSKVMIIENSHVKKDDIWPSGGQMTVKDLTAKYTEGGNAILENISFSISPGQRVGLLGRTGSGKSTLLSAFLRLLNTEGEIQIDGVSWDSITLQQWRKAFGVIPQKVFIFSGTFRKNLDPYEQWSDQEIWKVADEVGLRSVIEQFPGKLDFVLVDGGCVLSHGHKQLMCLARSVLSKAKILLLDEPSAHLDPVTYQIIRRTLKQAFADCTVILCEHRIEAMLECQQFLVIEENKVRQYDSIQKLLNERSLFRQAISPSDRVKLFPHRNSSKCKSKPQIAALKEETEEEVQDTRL
SMILES,Ent. A Max Activity (%) (Enteroid Assay A),Ent. A Max Activity (%) [1],EC50 (Enteroid Assay A),EC50 [2]
"Cc1cccc(C)c1-c1cc2nc(n1)NS(=N)(=O)c1cccc(c1)C(=O)N1CCN(CCC(C)(C)C)C[C@H](C1)O2 (single isomer, unassigned) [Compound 244, 18-(3,3-dimethylbutyl)-12-(2,6-dimethylphenyl)-8-imino-15-oxa-8λ^6-thia-1,9,11,18,22-pentaazatetracyclo[14.4.1.13,7.110,14]tricosa-3,5,7(23),10,12,14(22)-hexaene-2,8-dione]",+ (+ is <30%),,,
"Cc1cccc(C)c1-c1cc2nc(n1)NS(=O)(=O)c1cccc(c1)C(=O)N1CCNCC1C(C)O2 (stereo not shown) [Compound 172, 13-(2,6-dimethylphenyl)-9-methyl-10-oxa-17λ^6-thia-3,6,14,16,23-pentaazatetracyclo[16.3.1.111,15.03,8]tricosa-1(22),11,13,15(23),18,20-hexaene-2,17,17-trione]",,+ (+ is <300%),,
"Cc1cccc(C)c1-c1cc2nc(n1)NS(=O)(=O)c1cccc(c1)C(=O)N1CCN(C(=O)OCc3ccccc3)C[C@@H](O2)[C@H]1C (single isomer, unassigned) [Compound 113]",+ (+ is <30%),,3000 to 30000 nM,
"Cc1cccc(C)c1-c1cc2nc(n1)NS(=O)(=O)c1cccc(c1)C(=O)N1CCN(CCC3(C(F)(F)F)CC3)CC(C1)O2 (single isomer, unassigned) [Compound 69, 12-(2,6-Dimethylphenyl)-18-{2-[1-(trifluoromethyl)cyclopropyl]ethyl}-15-oxa-8λ^6-thia-1,9,11,18,22-pentaazatetracyclo[14.4.1.13,7.110,14]tricosa-3(23),4,6,10(22),11,13-hexaene-2,8,8-trione]",+++ (+++ is >600%),,< 1000 nM,
Cc1cccc(C)c1-c1cc2nc(n1)NS(=O)(=O)c1cccc(c1)CN1C[C@@H](CN(Cc3ccccc3)CC1=O)O2 (stereo in doubt) [Compound 144],++ (++ is 30-60%),,< 1000 nM,
"Cc1cccc(C)c1-c1cc2nc(n1)NS(=O)(=O)c1cccc(c1)C(=O)N1CCN(Cc3ccccc3)C[C@H](O2)[C@@H]1CC(C)C (single isomer, unassigned) [Compound 87]",++ (++ is 30-60%),,< 1000 nM,
Cc1cccc(C)c1-c1cc2nc(n1)NS(=O)(=O)c1cccc(c1)C(=O)N1CCN(CC(C)(C)C)C[C@H](C1)O2 [Compound 19],+++ (+++ is >600%),,< 1000 nM,
Cc1cccc(C)c1-c1cc2nc(n1)NS(=O)(=O)c1cccc(c1)C(=O)N1CCN(C(=O)NCc3ccccc3)C[C@@H]1CO2 [Compound 289],,+ (+ is <300%),,
Cc1cccc(C)c1-c1cc2nc(n1)NS(=O)(=O)c1cccc(c1)C(=O)N1CCN(CCCC(C)(C)C)C[C@@H]1CO2 [Compound 296],,+++ (+++ is >60%),,< 1000 nM
Cc1cccc(C)c1-c1cc2nc(n1)NS(=O)(=O)c1cccc(c1)C(=O)N1CCN(Cc3sccc3Oc3ccccc3)CC(C1)O2 (stereo not shown) [Compound 61],,+++ (+++ is >60%),,< 1000 nM
"Cc1cccc(C)c1-c1cc2nc(n1)NS(=O)(=O)c1cccc(c1)C(=O)N1CCN(C(C)C)C[C@H](C1)O2 [Compound 75, (16R)-12-(2,6-Dimethylphenyl)-18-(propan-2-yl)-15-oxa-8λ^6-thia-1,9,11,18,22-pentaazatetracyclo[14.4.1.13,7.110,14]tricosa-3,5,7(23),10,12,14(22)-hexaene-2,8,8-trione]",+++ (+++ is >600%),,< 1000 nM,
Cc1cccc(C)c1-c1cc2nc(n1)NS(=O)(=O)c1cccc(c1)C(=O)N1CCN(CC3CCOC3)C[C@H](C1)O2 (stereo partly shown) [Compound 30],+++ (+++ is >600%),,1000 to 3000 nM,
"Cc1cccc(C)c1-c1cc2nc(n1)NS(=O)(=O)c1cccc(c1)C(=O)N1CCNCC1C(Cc1ccccc1)O2 (stereo not shown) [Compound 176, 9-benzyl-13-(2,6-dimethylphenyl)-10-oxa-17λ^6-thia-3,6,14,16,23-pentaazatetracyclo[16.3.1.111,15.03,8]tricosa-1(22),11,13,15(23),18,20-hexaene-2,17,17-trione]",+ (+ is <30%),,3000 to 30000 nM,
CCOC(=O)C1CC1CN1CCN2C[C@@H](C1)Oc1cc(-c3c(C)cccc3C)nc(n1)NS(=O)(=O)c1cccc(c1)C2=O (stereo partly shown) [Compound 34],+++ (+++ is >600%),,< 1000 nM,
Cc1cccc(C)c1-c1cc2nc(n1)NS(=O)(=O)c1cccc(c1)C(=O)N1CCN(Cc3cncn3C)CC(C1)O2 (stereo not shown) [Compound 51],,+ (+ is <300%),,
Cc1cccc(C)c1-c1cc2nc(n1)NS(=O)(=O)c1cccc(c1)C(=O)N1CCN(CC3CCCCC3)C[C@@H]1CO2 [Compound 297],,+++ (+++ is >60%),,< 1000 nM
Cc1cccc(C)c1-c1cc2nc(n1)NS(=O)(=O)c1cccc(c1)C(=O)N1CCCN(CCCC3(C(F)(F)F)CC3)CC(C1)O2 (stereo not shown) [Compound 357],++ (++ is 30-60%),,< 1000 nM,

SMILES,Ent. A Max Activity (%) (Enteroid Assay A),Ent. A Max Activity (%) [1],EC50 (Enteroid Assay A),EC50 [2]
Cc1cccc(C)c1-c1cc2nc(n1)NS(=O)(=O)c1cccc(c1)C(=O)N1C[C@@H](CN(CCC(C)(C)C)C[C@H]1CC(C)C)O2 [Compound 143],+++ (+++ is >600%),,< 1000 nM,
Cc1cccc(C)c1-c1cc2nc(n1)NS(=O)(=O)c1cccc(c1)C(=O)N1CCN(CC3CCOCC3)C[C@@H]1CO2 [Compound 295],,+++ (+++ is >60%),,1000 to 3000 nM
"Cc1cccc(C)c1-c1cc2nc(n1)NS(=O)(=O)c1cccc(c1)C(=O)N1C[C@@H](CN(C)C[C@H]1C(C)C)O2 [Compound 125, (16R,20R)-12-(2,6-Dimethylphenyl)-18-methyl-20-(propan-2-yl)-15-oxa-8λ^6-thia-1,9,11,18,22-pentaazatetracyclo[14.4.1.13,7.110,14]tricosa-3(23),4,6,10(22),11,13-hexaene-2,8,8-trione]",+++ (+++ is >600%),,< 1000 nM,
Cc1cccc(C)c1-c1cc2nc(n1)NS(=O)(=O)c1cccc(c1)C(=O)N1CCN(CC3CCCCC3)CC1CO2 (stereo not shown) [Compound 309],,++ (++ is 30-60%),,< 1000 nM
Cc1cccc(C)c1-c1cc2nc(n1)NS(=O)(=O)c1cccc(c1)C(=O)N1CC(CC(C)(C)C1)O2 (stereo not shown) [Compound 362],++ (++ is 30-60%),,< 1000 nM,
"Cc1cccc(C)c1-c1cc2nc(n1)NS(=O)(=O)c1cccc(c1)C(=O)N1C[C@@H](CN(CC(F)(F)F)CC1CC(C)C)O2 (stereo in doubt) [Compound 105, (16R,20R)-12-(2,6-Dimethylphenyl)-20-(2-methylpropyl)-18-(2,2,2-trifluoroethyl)-15-oxa-8λ^6-thia-1,9,11,18,22-pentaazatetracyclo[14.4.1.13,7.110,14]tricosa-3(23),4,6,10,12,14(22)-hexaene-2,8,8-trione]",+ (+ is <30%),,,
Cc1cccc(C)c1-c1cc2nc(n1)NS(=O)(=O)c1cccc(c1)C(=O)N1CCN(C3CC4(COC4)C3)C[C@H](C1)O2 [Compound 25],++ (++ is 30-60%),,3000 to 30000 nM,
CC(C)CCc1ccccc1-c1cc2nc(n1)NS(=O)(=O)c1cccc(c1)C(=O)N1Cc3ccccc3C(C1)O2 (stereo not shown) [Compound 337],,++ (++ is 30-60%),,< 1000 nM
Cc1cccc(C)c1-c1cc2nc(n1)NS(=O)(=O)c1cccc(c1)C(=O)N1CCCN(C(=O)OC(C)(C)C)CC(C1)O2 (stereo not shown) [Compound 359],++ (++ is 30-60%),,1000 to 3000 nM,
Cc1cccc(C)c1-c1cc2nc(n1)NS(=O)(=O)c1cccc(c1)C(=O)N1C[C@@H](CN(C(C)C)C[C@H]1CC(C)C)O2 [Compound 139],+++ (+++ is >600%),,< 1000 nM,
Cc1cccc(C)c1-c1cc2nc(n1)NS(=O)(=O)c1cccc(c1)C(=O)N1C[C@@H](CN(C3CC4(CCCCC4)C3)C[C@@H]1CC(C)C)O2 [Compound 150],++ (++ is 30-60%),,< 1000 nM,
"Cc1cccc(C)c1-c1cc2nc(n1)NS(=O)(=O)c1cccc(c1)C(=O)N1CC(CCC1c1ccccc1)O2 (single isomer, unassigned) [Compound 226, 18-(2,6-Dimethylphenyl)-6-phenyl-2-oxa-14λ^6-thia-7,15,17,20-tetraazatetracyclo[14.3.1.13,7.19,13]docosa-1(19),9(21),10,12,16(20),17-hexaene-8,14,14-trione]",,++ (++ is 30-60%),,< 1000 nM
"Cc1cccc(C)c1-c1cc2nc(n1)NS(=O)(=O)c1cccc(c1)C(=O)N1Cc3ccccc3C[C@H]1CO2 [Compound 212, (12S)-17-(2,6-Dimethylphenyl)-14-oxa-21λ^6-thia-3,18,20,27-tetraazapentacyclo[20.3.1.115,19.03,12.05,10]heptacosa-1(26),5(10),6,8,15(27),16,18,22,24-nonaene-2,21,21-trione]",,++ (++ is 30-60%),,< 1000 nM
CCC(CC)CN1CCN2C(=O)c3cccc(c3)S(=O)(=O)Nc3nc(cc(-c4c(C)cccc4C)n3)OC[C@H]2C1 [Compound 259],,+++ (+++ is >60%),,< 1000 nM
Cc1cccc(C)c1-c1cc2nc(n1)NS(=O)(=O)c1cccc(c1)C(=O)N1CCN(C(=O)CC(C)(C)C)CC1CO2 (stereo not shown) [Compound 307],,++ (++ is 30-60%),,3000 to 30000 nM
Cc1cccc(C)c1-c1cc2nc(n1)NS(=O)(=O)c1cccc(c1)C(=O)N1CCN(CCC3C4(CC4)C34CC4)C[C@H](C1)O2 [Compound 18],+ (+ is <30%),,1000 to 3000 nM,
